# Test results reported in ChEMBL document CHEMBL4311967, “Continued exploration and tail approach synthesis of benzenesulfonamides containing triazole and dual triazole moieties as carbonic anhydrase I, II, IV and IX inhibitors” (Eur J Med Chem, 2019).
# Target: Carbonic anhydrase 9 (Homo sapiens, UniProt Q16790)
# Assay: Inhibition of human carbonic anhydrase 9 assessed as reduction in CO2 hydration incubated for 1 hr by phenol red staining-based stopped flow assay
row,SMILES,Ki
1,NS(=O)(=O)c1ccc(-n2nnc(-c3nnc(SCC(=O)c4cccc([N+](=O)[O-])c4)[nH]3)c2-c2ccccc2)cc1,192 nM
2,Cc1c(-c2nnc(SCC(=O)c3ccc(Cl)cc3)[nH]2)nnn1-c1ccc(S(N)(=O)=O)cc1,3190 nM
3,NS(=O)(=O)c1ccc(-n2nnc(-c3nnc(SCC(=O)c4ccccc4)[nH]3)c2-c2ccccc2)cc1,135 nM
4,Cc1c(-c2nnc(SCC(=O)c3cccc(Br)c3)[nH]2)nnn1-c1ccc(S(N)(=O)=O)cc1,1470 nM
5,NS(=O)(=O)c1ccc(-n2nnc(-c3nnc(SCC(=O)c4ccc(Br)cc4)[nH]3)c2-c2ccccc2)cc1,177 nM
6,NS(=O)(=O)c1ccc(-n2nnc(-c3n[nH]c(=S)[nH]3)c2-c2ccccc2)cc1,51 nM
7,NS(=O)(=O)c1ccc(-n2nnc(-c3nnc(SCC(=O)c4cccc(Br)c4)[nH]3)c2-c2ccccc2)cc1,278 nM
8,Cc1c(-c2nnc(SCC(=O)c3ccc(-c4ccccc4)cc3)[nH]2)nnn1-c1ccc(S(N)(=O)=O)cc1,226 nM
9,Cc1ccc(C(=O)CSc2nnc(-c3nnn(-c4ccc(S(N)(=O)=O)cc4)c3C)[nH]2)cc1,3070 nM
10,NS(=O)(=O)c1ccc(-n2nnc(-c3nnc(SCC(=O)c4ccc([N+](=O)[O-])cc4)[nH]3)c2-c2ccccc2)cc1,204 nM
11,Cc1c(-c2n[nH]c(=S)[nH]2)nnn1-c1ccc(S(N)(=O)=O)cc1,1240 nM
12,Cc1ccc(C(=O)CSc2nnc(-c3nnn(-c4ccc(S(N)(=O)=O)cc4)c3-c3ccccc3)[nH]2)cc1,294 nM
13,NS(=O)(=O)c1ccc(-n2nnc(-c3nnc(SCC(=O)c4ccc(-c5ccccc5)cc4)[nH]3)c2-c2ccccc2)cc1,734 nM
14,Cc1c(-c2nnc(SCC(=O)c3ccccc3)[nH]2)nnn1-c1ccc(S(N)(=O)=O)cc1,3200 nM
15,Cc1c(-c2nnc(SCC(=O)c3ccc(F)cc3)[nH]2)nnn1-c1ccc(S(N)(=O)=O)cc1,3020 nM
16,NS(=O)(=O)c1ccc(-n2nnc(-c3nnc(SCC(=O)c4ccc(Cl)cc4)[nH]3)c2-c2ccccc2)cc1,477 nM
17,Cc1c(C(=O)NNC(N)=S)nnn1-c1ccc(S(N)(=O)=O)cc1,2970 nM
18,Cc1c(-c2nnc(SCC(=O)c3ccc([N+](=O)[O-])cc3)[nH]2)nnn1-c1ccc(S(N)(=O)=O)cc1,3060 nM
19,NS(=O)(=O)c1ccc(-n2nnc(-c3nnc(SCC(=O)c4ccc(F)cc4)[nH]3)c2-c2ccccc2)cc1,177 nM
20,Cc1c(-c2nnc(SCC(=O)c3cccc([N+](=O)[O-])c3)[nH]2)nnn1-c1ccc(S(N)(=O)=O)cc1,2430 nM
21,Cc1c(-c2nnc(SCC(=O)c3ccc(Br)cc3)[nH]2)nnn1-c1ccc(S(N)(=O)=O)cc1,2830 nM
22,NC(=S)NNC(=O)c1nnn(-c2ccc(S(N)(=O)=O)cc2)c1-c1ccccc1,111 nM
